Each structure is given as a SMILES string.

Assay [1] has as its target T1, Drosophila OR49b (Drosophila melanogaster, UniProt Q9V6H2).
T1 construct: expressed in transfected cells
T1 sequence (Q9V6H2 1-375): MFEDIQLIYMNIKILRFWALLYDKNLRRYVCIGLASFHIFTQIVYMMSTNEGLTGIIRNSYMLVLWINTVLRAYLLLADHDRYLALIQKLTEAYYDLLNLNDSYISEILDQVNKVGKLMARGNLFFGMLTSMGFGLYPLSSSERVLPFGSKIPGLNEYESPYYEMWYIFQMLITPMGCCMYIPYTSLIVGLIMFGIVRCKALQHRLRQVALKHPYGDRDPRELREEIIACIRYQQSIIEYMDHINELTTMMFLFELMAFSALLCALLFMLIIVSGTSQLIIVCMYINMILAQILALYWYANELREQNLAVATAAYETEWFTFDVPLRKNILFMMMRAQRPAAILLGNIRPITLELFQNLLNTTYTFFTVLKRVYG
T1 sequence (Q9VNB5 1-486 partner): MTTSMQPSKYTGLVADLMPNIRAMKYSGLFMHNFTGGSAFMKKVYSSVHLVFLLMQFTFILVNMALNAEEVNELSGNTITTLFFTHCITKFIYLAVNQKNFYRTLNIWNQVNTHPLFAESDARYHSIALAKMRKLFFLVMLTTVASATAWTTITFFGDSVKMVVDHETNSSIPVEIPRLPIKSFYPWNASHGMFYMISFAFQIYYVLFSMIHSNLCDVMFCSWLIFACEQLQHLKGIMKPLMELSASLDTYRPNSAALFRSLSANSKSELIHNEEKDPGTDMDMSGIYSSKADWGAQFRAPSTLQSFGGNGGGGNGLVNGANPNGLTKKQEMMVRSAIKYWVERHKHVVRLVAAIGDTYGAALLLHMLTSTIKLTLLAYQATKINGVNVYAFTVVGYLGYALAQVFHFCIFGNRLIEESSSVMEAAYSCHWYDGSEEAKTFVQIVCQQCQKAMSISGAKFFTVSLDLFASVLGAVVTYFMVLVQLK
Put plainly: cell-based. The following applies: for Average response: OR49b cell line, mean of biological replicates; for activation at 1 µM / activation at 10 µM / activation at 100 µM: HEK293, read-out: OR49b response (VUAA1-normalized response). A digest of the protocol:
(§1)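 HEK293 lines stably expressing each Drosophila OR with GCaMP6, doxycycline-induced (1 μg/mL) 48 or 72 h. Fluorescence recorded 5 s baseline then 30 s after VOC injection at pH 7.3; ΔF=(FMAX−F0)/F0, normalized to 50 µM VUAA1 response per line, triplicate wells averaged; concentration series 0.01–100 μM.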

For assay [2], the target named is T2, Drosophila OR71a (Drosophila melanogaster, UniProt Q9VUK5).
T2 construct: expressed in transfected cells
T2 sequence (Q9VUK5 1-378): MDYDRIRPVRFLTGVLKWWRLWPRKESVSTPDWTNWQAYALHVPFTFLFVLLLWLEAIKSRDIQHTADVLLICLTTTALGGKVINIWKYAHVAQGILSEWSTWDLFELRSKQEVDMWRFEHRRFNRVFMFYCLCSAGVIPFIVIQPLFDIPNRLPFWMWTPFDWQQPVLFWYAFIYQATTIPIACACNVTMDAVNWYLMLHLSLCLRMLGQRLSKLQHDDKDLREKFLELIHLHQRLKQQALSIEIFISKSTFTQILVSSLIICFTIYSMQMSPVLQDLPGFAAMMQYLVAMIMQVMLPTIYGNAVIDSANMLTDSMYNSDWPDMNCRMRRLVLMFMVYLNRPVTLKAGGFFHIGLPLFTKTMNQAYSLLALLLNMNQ
T2 sequence (Q9VNB5 1-486 partner): T1 sequence (Q9VNB5 1-486 partner)
Put plainly: Calcium ion fluorescence (GCaMP6) assay, OR71a stable HEK293 cell line. Format: cell-based. The following applies: for Average response: OR71a cell line, VUAA1-normalized response, mean of biological replicates; for DF norm AVERAGE OR71a: normalized fluorescence change, values below 0.05 threshold given as 0; for activation at 1 µM / activation at 10 µM / activation at 100 µM: HEK293, read-out: OR71a response (VUAA1-normalized response). A digest of the protocol: as §1

Turning to `CC1=CCC[C@@]2(C)[C@@H]3CC[C@]12CC3(C)C` [(−)-α-neoclovene], in assay [1], the “DF norm AVERAGE OR49b” value was determined as 0. In addition, the Average response in assay [1] (odorant cc. 1 µM) is 0.00; in assay [1] (odorant cc. 10 µM), 0.00; in assay [1] (odorant cc. 100 µM) it was 0.00; in assay [2] (cc. 1 µM), 0.00; in assay [2] (cc. 10 µM), 0.00; in assay [2] (cc. 100 µM), 0.0221. Further, the “OR49b response (VUAA1-normalized response)” value in assay [1] (VOC concentration 1 μM), in assay [1] (VOC concentration 10 μM) and in assay [1] (VOC concentration 100 μM) was 0.00 each time. Besides, the “OR71a response (VUAA1-normalized response)” value in assay [2] (VOC concentration 1 μM), in assay [2] (VOC concentration 10 μM) and in assay [2] (VOC concentration 100 μM) was 0.00 each time. For the same compound, the “DF norm AVERAGE OR71a” value in assay [2] (concentration 1), in assay [2] (concentration 10) and in assay [2] (concentration 100) was 0 each time.
With `CC/C=C\CCO` [E-3-hexenol], the “OR49b response (VUAA1-normalized response)” value in assay [1] (VOC concentration 1 μM) was 0.00; in assay [1] (VOC concentration 10 μM), 0.00; in assay [1] (VOC concentration 100 μM), 0.08. Further, the “OR71a response (VUAA1-normalized response)” value in assay [2] (VOC concentration 1 μM), in assay [2] (VOC concentration 10 μM) and in assay [2] (VOC concentration 100 μM) was 0.00 in each case.
Take `CCCCCC(C)=O` [2-heptanone]: the “DF norm AVERAGE OR49b” value in assay [1] amounted to 0. Besides, the activation at 1 µM is 0% in assay [1] (VOC concentration 1 μM) and 8% in assay [2]. In addition, the activation at 10 µM in assay [1] (VOC concentration 10 μM) worked out at 0%; in assay [2] it was 12%. Also, the results for the activation at 100 µM in assay [1] (VOC concentration 100 μM) and in assay [2] were 0% and 5%, respectively. Further, the Average response turned out to be 0.00 in assay [1] (odorant cc. 1 µM); 0.00 in assay [1] (odorant cc. 10 µM); 0.02 in assay [1] (odorant cc. 100 µM); 0.08 in assay [2] (cc. 1 µM); 0.12 in assay [2] (cc. 10 µM); 0.05 in assay [2] (cc. 100 µM). Also, the “DF norm AVERAGE OR71a” value in assay [2] (concentration 1) was determined as 0.08012; in assay [2] (concentration 10), 0.1157; in assay [2] (concentration 100), 0.05175.
Regarding `CCCCC(C)=O` [2-hexanone], the “DF norm AVERAGE OR49b” value in assay [1] worked out at 0. The activation at 1 µM in assay [1] (VOC concentration 1 μM) was 0%; in assay [2], 8%. For the same compound, the activation at 10 µM in assay [1] (VOC concentration 10 μM) and in assay [2] was 0% each time. In addition, the activation at 100 µM in assay [1] (VOC concentration 100 μM) and in assay [2] was 0% throughout. Also, the Average response in assay [1] (odorant cc. 1 µM) worked out at 0.00; in assay [1] (odorant cc. 10 µM), 0.00; in assay [1] (odorant cc. 100 µM), 0.00; in assay [2] (cc. 1 µM) it was 0.08; in assay [2] (cc. 10 µM), 0.00; in assay [2] (cc. 100 µM) it was 0.00. For the same compound, the entries for the “DF norm AVERAGE OR71a” value in assay [2] (concentration 1), in assay [2] (concentration 10) and in assay [2] (concentration 100) were 0.08158, 0 and 0, respectively.
